Data taken from ChEMBL document CHEMBL1833828, “Efficient conversion of a nonselective norepinephrin reuptake inhibitor into a dual muscarinic antagonist-β₂-agonist for the treatment of chronic obstructive pulmonary disease” (J Med Chem, 2011).

How the values were obtained:
[1] = Lipophilicity, log D of the compound; format: physicochemical; conditions: octanol/water
[2] = Metabolic stability in human liver microsomes; format: ADME, Microsome; conditions: read-out: Stability
[3] = target: T1, Sodium-dependent noradrenaline transporter (Homo sapiens, UniProt P23975); assay: Displacement of [3H]nisoxetine from human NET receptor
[4] = target: T2, Muscarinic acetylcholine receptor M3 (Homo sapiens, UniProt P20309); assay: Displacement of [3H]N-methylscopolamine from human M3 receptor
Target sequence in this assay (P20309 whole entry): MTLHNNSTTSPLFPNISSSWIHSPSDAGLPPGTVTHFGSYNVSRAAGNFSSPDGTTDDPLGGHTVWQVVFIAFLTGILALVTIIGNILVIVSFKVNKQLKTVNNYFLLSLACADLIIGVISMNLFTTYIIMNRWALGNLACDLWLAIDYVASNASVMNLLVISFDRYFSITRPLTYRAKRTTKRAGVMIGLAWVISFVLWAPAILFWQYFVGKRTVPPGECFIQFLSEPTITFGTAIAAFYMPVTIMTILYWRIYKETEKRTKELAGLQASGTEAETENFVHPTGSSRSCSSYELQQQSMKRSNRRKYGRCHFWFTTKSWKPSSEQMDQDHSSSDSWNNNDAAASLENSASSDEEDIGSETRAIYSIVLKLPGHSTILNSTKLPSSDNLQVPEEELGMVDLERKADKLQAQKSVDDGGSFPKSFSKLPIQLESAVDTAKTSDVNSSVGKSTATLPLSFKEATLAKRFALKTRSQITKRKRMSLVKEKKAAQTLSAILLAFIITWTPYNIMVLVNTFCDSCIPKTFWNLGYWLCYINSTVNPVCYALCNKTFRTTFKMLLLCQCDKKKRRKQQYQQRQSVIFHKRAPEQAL

[5] = target: T2, Muscarinic acetylcholine receptor M3; assay: Antagonist activity at human cloned M3 receptor assessed as time taken to reach 50% of total [3H]NMS for solvent treated membranes by dilution-offset method; format: functional
Target sequence in this assay (P20309 whole entry, looked up): as the sequence (P20309 whole entry) above

[6] = target: T3, Beta-2 adrenergic receptor (Homo sapiens, UniProt P07550); assay: Agonist activity at human beta-2 adrenergic receptor expressed in CHO cells assessed as induction of intracellular cAMP production; format: functional, cell-based
Target sequence in this assay (P07550 whole entry): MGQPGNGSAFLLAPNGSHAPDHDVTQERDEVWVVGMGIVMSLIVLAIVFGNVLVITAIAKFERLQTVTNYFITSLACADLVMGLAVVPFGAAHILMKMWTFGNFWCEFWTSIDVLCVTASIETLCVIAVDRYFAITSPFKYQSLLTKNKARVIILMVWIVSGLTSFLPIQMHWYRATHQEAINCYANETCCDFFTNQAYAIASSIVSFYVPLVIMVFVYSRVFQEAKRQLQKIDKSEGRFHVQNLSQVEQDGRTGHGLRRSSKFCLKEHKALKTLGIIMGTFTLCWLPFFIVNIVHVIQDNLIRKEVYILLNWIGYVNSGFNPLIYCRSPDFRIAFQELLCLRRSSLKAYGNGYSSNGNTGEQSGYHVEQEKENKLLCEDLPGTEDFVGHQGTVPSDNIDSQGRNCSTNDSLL

[7] = Bronchodilatory action in guinea pig trachea assessed as inhibition of electrical field-stimulated acetylcholine release in the presence of beta-2 adrenergic receptor antagonist propranolol; format: functional, tissue-based, Cavia porcellus
[8] = target: T3, Beta-2 adrenergic receptor; assay: Agonist activity at human cloned beta-2 adrenergic receptor expressed in CHO cells after compound wash-out relative to unwashed cells; format: functional, cell-based
Target sequence in this assay (P07550 whole entry, looked up): as the sequence (P07550 whole entry) above

[9] = Permeability across human Caco2 cells; format: ADME, cell-based; conditions: Caco-2, read-out: permeability
[10] = Bronchodilatory action against electrical field-stimulated constriction in guinea pig trachea assessed as time taken for the muscle tone at EC70 to recover by 50% of inhibition induced in the presence of beta-2 adrenergic receptor antagonist propranolol; format: functional, Cavia porcellus
Cavia porcellus = species on record: Cavia porcellus; assay: Bronchodilatory action in guinea pig trachea assessed as inhibition of electrical field-stimulated acetylcholine release; format: functional
[11] = Bronchodilatory action against electrical field-stimulated constriction in guinea pig trachea assessed as time taken for the muscle tone at EC70 to recover by 50% of inhibition induced; format: functional, Cavia porcellus
[12] = target: Beta-1 adrenergic receptor (Homo sapiens, UniProt P08588); assay: Agonist activity at beta-1 adrenergic receptor; format: functional
[13] = target: T1, Sodium-dependent noradrenaline transporter; assay: Binding affinity at human NET receptor at 10 uM

T1 sequence (P23975 whole entry): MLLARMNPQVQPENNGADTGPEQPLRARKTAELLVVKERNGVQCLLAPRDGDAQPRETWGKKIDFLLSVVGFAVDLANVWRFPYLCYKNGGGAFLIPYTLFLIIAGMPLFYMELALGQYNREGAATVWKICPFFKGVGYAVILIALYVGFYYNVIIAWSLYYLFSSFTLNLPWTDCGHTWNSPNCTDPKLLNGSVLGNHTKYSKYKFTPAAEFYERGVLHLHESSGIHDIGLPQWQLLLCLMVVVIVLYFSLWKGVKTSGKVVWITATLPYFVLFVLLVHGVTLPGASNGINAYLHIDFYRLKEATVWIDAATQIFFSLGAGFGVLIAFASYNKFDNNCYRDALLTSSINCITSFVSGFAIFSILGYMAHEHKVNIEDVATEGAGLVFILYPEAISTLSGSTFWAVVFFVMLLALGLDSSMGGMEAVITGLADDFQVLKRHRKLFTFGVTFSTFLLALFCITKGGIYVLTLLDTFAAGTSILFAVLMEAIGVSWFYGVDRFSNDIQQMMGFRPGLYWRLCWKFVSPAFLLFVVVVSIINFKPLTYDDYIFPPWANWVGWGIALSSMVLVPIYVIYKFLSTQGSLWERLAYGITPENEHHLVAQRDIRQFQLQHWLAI
Sequence of Beta-1 adrenergic receptor (P08588 whole entry): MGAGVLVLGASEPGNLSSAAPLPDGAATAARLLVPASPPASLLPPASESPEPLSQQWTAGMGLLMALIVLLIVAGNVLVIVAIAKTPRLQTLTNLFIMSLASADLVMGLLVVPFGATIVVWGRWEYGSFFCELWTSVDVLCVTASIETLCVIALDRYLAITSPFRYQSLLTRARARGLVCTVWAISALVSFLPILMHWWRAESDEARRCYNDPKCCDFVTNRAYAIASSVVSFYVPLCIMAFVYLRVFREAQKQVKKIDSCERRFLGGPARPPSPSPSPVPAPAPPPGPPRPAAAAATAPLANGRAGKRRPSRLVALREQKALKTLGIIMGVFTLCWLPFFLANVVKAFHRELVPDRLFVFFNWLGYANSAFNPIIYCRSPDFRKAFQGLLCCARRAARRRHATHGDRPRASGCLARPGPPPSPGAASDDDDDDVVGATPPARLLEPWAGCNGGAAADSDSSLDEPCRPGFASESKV

| Compound | logD [1] | microsomal CLint [2] [µL/min/mg] | Ki [3] [µM] | Ki [4] [µM] | TIME [5] [h] | EC50 [6] [µM] | EC50 [7] [µM] | fold change (FC) [8] | Papp [9] [×10⁻⁶ cm/s] | Time [10] [h] | EC50 (Cavia porcellus) [µM] | Time [11] [h] | EC50 [12] [µM] | Activity [13] [%] |
| --- | --- | --- | --- | --- | --- | --- | --- | --- | --- | --- | --- | --- | --- | --- |
| Fc1cccc(F)c1-n1nc(OC2CCNCC2)c2ccccc21 | 1.4 | < 8 | 0.0068 | 0.049 |  |  |  |  |  |  |  |  |  |  |
| Oc1cccc(F)c1-n1nc(OC2CCNCC2)c2ccccc21 | 0.6 | < 8 |  | 0.01 |  |  |  |  |  |  |  |  |  |  |
| O=c1ccc2c([C@@H](O)CNCCCCCCCCCN3CCC(Oc4nn(-c5c(O)cccc5F)c5c4CCCC5)CC3)ccc(O)c2[nH]1 | 2.4 | 25 |  | 0.0022 | < 0.267 | 0.014 | 0.027 | 1.5 | < 1 | >16 | 0.028 | >16 | > 10 |  |
| Cc1ccc(O)c([C@H](CCN(C(C)C)C(C)C)c2ccccc2)c1 [TOLTERODINE] | 1.8 | < 8 |  |  |  |  |  |  |  |  |  |  |  | 15 |
| Oc1cccc(F)c1-n1nc(OC2CCNCC2)c2c1CCCC2 | 0.3 | < 8 | 2.9 | 0.0025 |  |  |  |  |  |  |  |  |  |  |
